Measurements from patent US8383662B2, “Bicyclic heteroaryl compounds” (National Chiao Tung University, priority 2006, dated 2013).

Tests used:
4T1^LUC+ cells [1] = experiment: Effects on tumor recurrence and survival rate; type: in vivo, BALB/c mice; conditions: 50 mg/kg i.p. once daily; for overall survival life span: compared with vehicle group, FIG. 4; for luminescent signal intensity after tumor resection (tumor recurrence): sustain treatment vs stop treatment, FIG. 3
Description: (§1) 4T1^LUC+ cells obtained by the method described in Example 188 were implanted into the right inguinal mammary fat pads of 6 to 8-week old female BALB/c mice (1×10^5 cells in 100 μL PBS/mouse). After 14 days of tumor cell implantation, a single dose of 50 mg/kg body weight of a test compound or vehicle (PBS) was administered intraperitoneally once daily for three weeks. Compounds 2, 56, and 91 were tested in this assay. Sorafenib (Nexavar®) and sunitinib (Sutent®) were also used as reference compounds.
At the end of three-week treatment, the orthotopically grown tumors were surgically removed from the six groups of mice (i.e., 5 groups each treated with a test compound and 1 vehicle group). Then each of the six groups (i.e., 5 groups each treated with a test compound and 1 vehicle group) were divided into two subgroups, one with no further drug treatment (denoted as “stop treatment” in FIG. 3) and the other with continued drug treatment for 35 days (denoted as the “sustain treatment” in FIG. 3).
Bioluminescent data were collected in a manner similar to that described in Example 189 above at the end of day 35 after tumor resection.

4T1^LUC+ cells [2] = experiment: In vivo assay on inhibiting spontaneous metastasis; set-up: species or system BALB/c mice; conditions: 50 mg/kg i.p. once daily; for luminescent signal intensity (metastatic tumor burden): end of the fourth week after compound treatment (sixth week after implantation), FIG. 2
Description: as §1, with “To investigate the effect of test compounds on distant spontaneous metastasis generated by the tumor cells, 4T1^LUC+” for “4T1^LUC+”, “6-week” for “6 to 8-week”, “old” for “old female”, “vehicle” for “vehicle (PBS)”, “daily.” for “daily for three weeks.”, “used” for “tested”
A total of 36 mice, six for each of the six groups (i.e., 5 groups treated with test compounds and 1 vehicle group), were imaged once weekly for a period of 6 weeks after tumor cell implantation via bioluminescence imaging.
In vivo bioluminescence imaging was conducted on a cryogenically cooled IVIS™ system (Xenogen Corp., Alameda, Calif.) coupled to a data-acquisition PC running Living Image version 3.1 software (Xenogen Corp.). Before imaging, animals were anesthetized in a plastic chamber filled with 2% isofluorane/air mixture and 150 mg/mL of luciferin (potassium salt, Xenogen Corp.) and normal saline was injected (i.p.) into each mouse at a dose of 150 mg/kg body weight. This dose and route of administration has been previously shown to be optimal for studies in rodents when images were acquired between 10 and 20 minutes post-luciferin administration (Contag C H et al. 1997 Photochem Photobiol.; 66:523-531). During image acquisition, isofluorane anesthesia was maintained using a nose cone delivery system and animal body temperature was regulated using a digitally thermostated bed integrated within the IVIS™ system (Xenogen Corp., Alameda, Calif.). A gray scale body surface image was collected in the chamber under dim illumination, followed by acquisition and overlay of the pseudocolor image representing the spatial distribution of detected photon counts emerging from active luciferase within the animal. An integration time of 1 minute was used for luminescent image acquisition.
The average of the in vivo bioluminescence intensities measured on the 14th day post tumor cell implantation but before treatment with test compounds severed as a baseline, corresponding to the metastatic tumor burden of the vehicle group, as shown in FIG. 2.

[3] = test system: 4T1 cells / 4T1^luc+ cells; experiment: Effects on tumor self-seeding; type: in vivo, BALB/c mice; conditions: 50 mg/kg orally once daily
Description: Unlabeled parental 4T1 cells were implanted into a mammary gland of 6 to 8-week old female BALB/c mice (1×10^5 cells in 100 μL PBS/mouse). After 14 days of tumor cell implantation, a single dose of 50 mg/kg body weight of a test compound or vehicle (PBS) was administered orally once daily for 2 days. Compound 56 was tested in this assay. Sunitinib (Sutent®) was used as a reference compound. Then 4T1^luc+ cells (1×10^5 cells in 100 μL PBS/mouse) were injected into the circulatory system of the mice by intracardiac injection. The mice were then administered orally with a single dose of 50 mg/kg body weight of a test compound or vehicle (PBS) once daily for 2 days.
Bioluminescent data were collected in a manner similar to that described in Example 189 above.

[4] = test system: 4T1^LUC+ cells (murine 4T1 breast cancer); experiment: In vivo assay on tumor growth inhibition; set-up: species or system BALB/c mice
Description: Compounds were tested for their efficacy in inhibiting tumor growth on murine tumor xenografts.
Murine 4T1 breast cancer cells (purchased from the American Type Culture Collection) were cultured to sub confluence in RPMI medium supplemented with 10% fetal bovine serum (GIBCO Invitrogen Corp.) at 37° C., 90% humidity and 5% CO2. The 4T1^LUC+ cells were established by the stable transfection of the firefly luciferase gene (pGL3-control, Promega Corporation) to 4T1 cells using LipofectAMINE PLUS Reagent (Life Technologies, Inc., Grand Island, N.Y.) for quantitative assessment of tumor burden in visceral organs. pcDNA3 vector (Invitrogen Co., Carlsbad, Calif.) was cotransfected for the selection by G418 (Sigma). The resulting 4T1^LUC+ colonies were isolated and cultured independently and the best expressing lines were identified based on the level of bioluminescent activity in the presence of luciferin in living cells. Highly bioluminescent clone was selected for further studies. […]
The length (i.e., the biggest diameter) and width (i.e., the smallest diameter) of the tumor was measured every 3.5 days by using a Vernier caliper. The tumor volume was then calculated as follows: volume=A×B^2×0.52, where A is the length of the tumor and B is the width of the tumor.

VEGF receptor 3 = biological target: T1, VEGF receptor 3 (Homo sapiens, UniProt P35916); experiment: KIRA-ELISA assay (VEGFR3 phosphotyrosine after VEGF-C stimulation); type: cell-based; conditions: NCI-H928, H928 cells stimulated by recombinant VEGF-C, read-out: inhibition percentage
T1 construct: lyse the cells and solubilize the VEGFR3; endogenous in cells; host or cells: H928 cells
Description: This assay was performed in two microtiter plates. The first plate was used to culture an adherent cell line expressing the VEGF receptor 3 and to stimulate the receptor with a test compound. The second plate was used to capture the solubilized membrane receptor, which was then probed for phosphotyrosine content with phosphotyrosine-specific antibody.
Specifically, H928 cells (2×10^5) in 100 μl medium were added to each well in a flat-bottom 24-well culture plate and cultured overnight at 37° C. in 5% CO2. After the supernatants were removed, the cells were serum-starved for 24 hours. A medium containing a test compound was added into each well and the cell culture was incubated for 30 minutes before it was stimulated by recombinant VEGF-C for 15 minutes. After the supernatants were removed, 100 μl of a lysis buffer were added into each well to lyse the cells and solubilize the VEGFR3. […] The absorbance at 450 nm and the absorbance at a reference wavelength of 650 nm (A450/650) were measured using an ELISA reader.
The inhibition efficacy of each test compound is expressed as an inhibition percentage calculated according to the following formula: 1−[(C−A)/(B−A)]. In this formula, A is the basal amount of phosphotyrosine detected in a blank control, B is the amount of phosphotyrosine detected with VEGF-C only, and C is the amount of phosphotyrosine detected with a test compound and VEGF-C.

T1 sequence (P35916 25-1363): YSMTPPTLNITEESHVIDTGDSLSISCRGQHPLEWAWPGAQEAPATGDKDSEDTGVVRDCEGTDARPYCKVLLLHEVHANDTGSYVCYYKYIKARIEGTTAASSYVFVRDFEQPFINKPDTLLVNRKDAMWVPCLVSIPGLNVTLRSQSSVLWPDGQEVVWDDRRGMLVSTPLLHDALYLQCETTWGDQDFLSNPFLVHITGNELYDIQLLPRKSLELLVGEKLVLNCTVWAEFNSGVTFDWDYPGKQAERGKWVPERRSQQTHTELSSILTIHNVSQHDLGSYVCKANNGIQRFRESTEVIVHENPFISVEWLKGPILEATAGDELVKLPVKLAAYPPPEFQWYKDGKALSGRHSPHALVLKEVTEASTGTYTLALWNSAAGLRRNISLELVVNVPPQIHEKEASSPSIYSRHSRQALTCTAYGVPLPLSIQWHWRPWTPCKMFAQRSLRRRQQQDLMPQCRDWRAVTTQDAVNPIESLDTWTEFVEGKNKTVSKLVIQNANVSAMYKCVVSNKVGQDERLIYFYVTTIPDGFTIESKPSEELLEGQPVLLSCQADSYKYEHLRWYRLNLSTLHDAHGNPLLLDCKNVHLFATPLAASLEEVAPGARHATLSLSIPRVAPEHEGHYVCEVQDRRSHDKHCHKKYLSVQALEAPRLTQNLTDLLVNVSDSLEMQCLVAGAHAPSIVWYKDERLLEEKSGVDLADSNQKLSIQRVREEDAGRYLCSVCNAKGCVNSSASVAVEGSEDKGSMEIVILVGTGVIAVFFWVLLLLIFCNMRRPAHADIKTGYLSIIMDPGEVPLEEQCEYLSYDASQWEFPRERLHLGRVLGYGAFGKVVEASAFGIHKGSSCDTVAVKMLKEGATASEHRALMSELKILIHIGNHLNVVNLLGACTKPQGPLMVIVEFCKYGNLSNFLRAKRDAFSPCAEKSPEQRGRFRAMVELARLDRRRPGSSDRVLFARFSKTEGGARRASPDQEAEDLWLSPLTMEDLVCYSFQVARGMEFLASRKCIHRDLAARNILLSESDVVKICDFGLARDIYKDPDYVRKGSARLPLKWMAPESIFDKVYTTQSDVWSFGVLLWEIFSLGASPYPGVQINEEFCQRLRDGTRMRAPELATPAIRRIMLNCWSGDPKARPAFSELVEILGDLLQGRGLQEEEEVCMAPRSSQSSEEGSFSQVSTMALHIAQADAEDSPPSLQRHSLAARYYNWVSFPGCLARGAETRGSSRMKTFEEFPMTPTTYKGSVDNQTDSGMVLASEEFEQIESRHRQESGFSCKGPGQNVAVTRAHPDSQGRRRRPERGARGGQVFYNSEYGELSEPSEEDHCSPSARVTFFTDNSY

Row | Structure (SMILES) | overall survival life span (4T1^LUC+ cells [1]) | luminescent signal intensity after tumor resection (tumor recurrence) (4T1^LUC+ cells [1]; day 35 after tumor resection) | inhibition of spontaneous metastasis compared with Sorafenib and sunitinib (4T1^LUC+ cells [2]) | luminescent signal intensity (metastatic tumor burden) (4T1^LUC+ cells [2]) | tumor recurrence reduction compared with sunitinib (4T1^LUC+ cells [1]; day 35 after tumor resection) | ability in inhibiting tumor self-seeding compared with Sutent [3] | bioluminescence from the thoracic cavity ([3]; day 7 post the second 2-day drug treatment, compared with vehicle group, FIGS. 5A and 5B) | bioluminescence from the abdominal cavity compared with Sutent-treated group ([3]; day 14 post the second 2-day drug treatment) | bioluminescence from the abdominal cavity ([3]; day 14 post the second 2-day drug treatment, compared with vehicle group) | tumor growth inhibition (tumor volume) ([4]; 50 mg/kg intraperitoneally once daily from day 14 after implantation, FIG. 1) | survival rate ([4]; 50 mg/kg intraperitoneally once daily, compared with Sorafenib-treated mice) | inhibition at 1 µM (VEGF receptor 3)
1 | CCCCc1nc2cccc(-c3nc4cc(C(=O)O)ccc4n3CC(C)C)c2n1CCCC [Compound 91] | increased the overall survival life span of the treated mice as compared with those in the vehicle group | lower luminescent signal intensity as compared with the corresponding group without continuous treatment | comparable or superior to the commercial drugs | significant lower luminescent signal intensity as compared with the vehicle group | – | – | – | – | – | – | – | –
2 | CCCCc1nc2cccc(-c3nc4cc(C(=O)OC)ccc4n3CC(C)C)c2n1CCCC [Compound 56] | increased the overall survival life span of the treated mice as compared with those in the vehicle group | lower luminescent signal intensity as compared with the corresponding group without continuous treatment | comparable or superior to the commercial drugs | did not exhibit any detectable luminescent signal | reduced tumor recurrence to a degree comparable to that of sunitinib | comparable or even superior ability in inhibiting tumor self-seeding to that of Sutent | much weaker bioluminescence from the thoracic cavity | weaker bioluminescence form the abdominal cavity | much weaker bioluminescence form the abdominal cavity | inhibited tumor growth almost as effectively as Sutent and Sorafenib | higher survival rate than those treated with Sorafenib | –
3 | COC(=O)c1ccc2c(c1)nc(-c1ccc3cn(CCC(c4ccccc4)c4ccccc4)nc3c1)n2CCC1=CCCCC1 [Compound 2] | increased the overall survival life span of the treated mice as compared with those in the vehicle group | lower luminescent signal intensity as compared with the corresponding group without continuous treatment | comparable or superior to the commercial drugs | significant lower luminescent signal intensity as compared with the vehicle group | – | – | – | – | – | – | – | ~65%
